One test has as its target rat CB2 receptors (Rattus norvegicus (Rat), UniProt Q9QZN9). In words: rat CB2 radioligand binding assay ([3H]CP 55,940 competition). Conditions: HEK293 membranes, 0.5 nM [3H]CP 55,940. On the procedure:
HEK293 cells stably expressing rat CB2 receptors were grown until a confluent monolayer was formed. Briefly, the cells were harvested and homogenized in TE buffer (50 mM Tris-HCl, 1 mM MgCl2, and 1 mM EDTA) using a polytron for 2×10 second bursts in the presence of protease inhibitors, followed by centrifugation at 45,000×g for 20 minutes. The final membrane pellet was re-homogenized in storage buffer (50 mM Tris-HCl, 1 mM MgCl2, and 1 mM EDTA and 10% sucrose) and frozen at −78° C. until used. Saturation binding reactions were initiated by the addition of membrane preparation (protein concentration of 20 μg/well for rat CB2) into wells of a deep well plate containing [^3H]CP 55,940 (120 Ci/mmol, a nonselective CB agonist commercially available from Tocris) in assay buffer (50 mM Tris, 2.5 mM EDTA, 5 mM MgCl2, and 0.5 mg/mL fatty acid free BSA, pH 7.4). After 45 min incubation at 30° C., binding reaction was terminated by the addition of 300 μl/well of cold assay buffer followed by rapid vacuum filtration through a UniFilter-96 GF/C filter plates (pre-soaked in 1 mg/mL BSA for 2 hours). The bound activity was counted in a TopCount using Microscint-20. Saturation experiments were conducted with twelve concentrations of [^3H]CP 55,940 ranging from 0.01 to 8 nM. Competition experiments were conducted with 0.5 nM [^3H]CP 55,940 and five concentrations of displacing ligands selected from the range of 0.01 nM to 10 μM. The addition of 10 μM unlabeled CP 55,940 (Tocris, Ellisville, Mo.) was used to assess nonspecific binding.

A further test concerns the target human CB2 receptors (Homo sapiens (Human), UniProt P34972). In words: human CB2 radioligand binding assay ([3H]CP 55,940 competition). Conditions: HEK293 membranes, 0.5 nM [3H]CP 55,940. On the procedure: HEK293 cells stably expressing human CB2 receptors were grown until a confluent monolayer was formed. Briefly, the cells were harvested and homogenized in TE buffer (50 mM Tris-HCl, 1 mM MgCl2, and 1 mM EDTA) using a polytron for 2×10 second bursts in the presence of protease inhibitors, followed by centrifugation at 45,000×g for 20 minutes. The final membrane pellet was re-homogenized in storage buffer (50 mM Tris-HCl, 1 mM MgCl2, and 1 mM EDTA and 10% sucrose) and frozen at −78° C. until used. Saturation binding reactions were initiated by the addition of membrane preparation (protein concentration of 5 μg/well for human CB2) into wells of a deep well plate containing [^3H]CP 55,940 (120 Ci/mmol, a nonselective CB agonist commercially available from Tocris) in assay buffer (50 mM Tris, 2.5 mM EDTA, 5 mM MgCl2, and 0.5 mg/mL fatty acid free BSA, pH 7.4). After 90 min incubation at 30° C., binding reaction was terminated by the addition of 300 μL/well of cold assay buffer followed by rapid vacuum filtration through a UniFilter-96 GF/C filter plates (pre-soaked in 1 mg/mL BSA for 2 hours). The bound activity was counted in a TopCount using Microscint-20. Saturation experiments were conducted with twelve concentrations of [^3H]CP 55,940 ranging from 0.01 to 8 nM. Competition experiments were conducted with 0.5 nM [^3H]CP 55,940 and five concentrations (0.01 nM to 10 μM) of displacing ligands. The addition of 10 μM unlabeled CP 55,940 (Tocris, Ellisville, Mo.) was used to assess nonspecific binding.

SMILES strings stand for the structures.

Sequence of human CB2 receptors (P34972 whole entry): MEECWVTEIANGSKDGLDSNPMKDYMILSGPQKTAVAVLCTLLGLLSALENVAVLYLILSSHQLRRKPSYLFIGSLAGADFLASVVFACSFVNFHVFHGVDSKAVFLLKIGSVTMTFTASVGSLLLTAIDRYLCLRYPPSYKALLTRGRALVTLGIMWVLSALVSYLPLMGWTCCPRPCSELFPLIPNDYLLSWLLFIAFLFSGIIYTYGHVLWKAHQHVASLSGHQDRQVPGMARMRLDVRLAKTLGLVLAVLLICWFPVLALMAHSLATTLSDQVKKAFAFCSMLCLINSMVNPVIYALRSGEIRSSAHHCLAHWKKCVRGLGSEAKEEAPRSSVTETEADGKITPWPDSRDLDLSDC
Sequence of rat CB2 receptors (Q9QZN9 whole entry): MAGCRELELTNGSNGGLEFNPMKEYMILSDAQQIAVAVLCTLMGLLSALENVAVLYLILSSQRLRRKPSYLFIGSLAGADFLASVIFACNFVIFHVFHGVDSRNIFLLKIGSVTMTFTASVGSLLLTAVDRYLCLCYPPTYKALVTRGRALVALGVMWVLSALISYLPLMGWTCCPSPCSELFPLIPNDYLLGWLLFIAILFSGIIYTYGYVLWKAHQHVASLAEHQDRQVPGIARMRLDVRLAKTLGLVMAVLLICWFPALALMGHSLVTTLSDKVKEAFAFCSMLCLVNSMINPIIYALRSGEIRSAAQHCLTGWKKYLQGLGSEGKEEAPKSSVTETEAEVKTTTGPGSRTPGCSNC

What is called Ki is a dissociation constant, usually derived from enzyme kinetics or from competition with a known ligand. Read a high Ki as a looser hold on the target. Regarding `CC(C)(O)COc1ccc(C(F)(F)F)cc1C(=O)/N=c1\sc2ccncc2n1CCCC(F)(F)F` [Example 27, 2-(2-hydroxy-2-methylpropoxy)-N-[(2Z)-3-(4,4,4-trifluorobutyl)[1,3]thiazolo[4,5-c]pyridin-2(3H)-ylidene]-5-(trifluoromethyl)benzamide], the figures for the Ki on rat CB2 receptors and on human CB2 receptors were 10 nM and 8.4 nM, respectively.

Consider `CCCCn1/c(=N/C(=O)c2cc(C(F)(F)F)ccc2OC[C@H](C)O)sc2ncccc21` [Example 36, N-[(2Z)-1-butyl[1,3]thiazolo[5,4-b]pyridin-2(1H)-ylidene]-2-{[(2S)-2-hydroxypropyl]oxy}-5-(trifluoromethyl)benzamide], for which the Ki worked out at 2.1 nM at rat CB2 receptors and 1.4 nM at human CB2 receptors.

Consider `CCCCn1cc(C(C)(C)C)s/c1=N\C(=O)c1cc(C(F)(F)F)ccc1NNC(=O)c1ccncc1` [Example 38, N-[(2Z)-3-butyl-5-tert-butyl-1,3-thiazol-2(3H)-ylidene]-2-(2-isonicotinoylhydrazino)-5-(trifluoromethyl)benzamide], for which the values for the Ki at rat CB2 receptors and on human CB2 receptors were 2.3 nM and 1.1 nM, respectively.

In the case of `CCCCn1/c(=N/C(=O)c2cc(C(F)(F)F)ccc2OCC(C)(C)O)sc2ncccc21` [Example 35, N-[(2Z)-1-butyl[1,3]thiazolo[5,4-b]pyridin-2(1H)-ylidene]-2-(2-hydroxy-2-methylpropoxy)-5-(trifluoromethyl)benzamide], the figures for the Ki on rat CB2 receptors and on human CB2 receptors were 28 nM and 15 nM, respectively.

`CC(C)(C)c1cn(CCC(F)(F)F)/c(=N/C(=O)c2cc(C#N)ccc2OC2CCC2)s1` [Example 17, N-[(2Z)-5-tert-butyl-3-(3,3,3-trifluoropropyl)-1,3-thiazol-2(3H)-ylidene]-5-cyano-2-(cyclobutyloxy)benzamide]: the Ki on rat CB2 receptors was 1.1 nM; on human CB2 receptors, 53 nM.

With `CC(C)(O)COc1ccc(C(F)(F)F)cc1C(=O)/N=c1\sc2ccncc2n1CC1CCC1` [Example 26, N-[(2Z)-3-(cyclobutylmethyl)[1,3]thiazolo[4,5-c]pyridin-2(3H)-ylidene]-2-(2-hydroxy-2-methylpropoxy)-5-(trifluoromethyl)benzamide], the Ki on rat CB2 receptors was 7.4 nM; at human CB2 receptors it was 2.5 nM.

Turning to `CCCCn1cc(C(C)(C)C)s/c1=N\C(=O)c1cc(C(F)(F)F)ccc1NNC(=O)c1cccnc1` [Example 37, N-[(2Z)-3-butyl-5-tert-butyl-1,3-thiazol-2(3H)-ylidene]-2-[2-(pyridin-3-ylcarbonyl)hydrazino]-5-(trifluoromethyl)benzamide], the figures for the Ki at rat CB2 receptors and at human CB2 receptors were 0.77 nM and 1.6 nM, respectively.

As for `CC(C)Cn1cc(C(C)(C)C)s/c1=N\C(=O)c1cc(C(F)(F)F)ccc1O[C@H]1CCN(C)C1` [Example 13, N-[(2Z)-5-tert-butyl-3-isobutyl-1,3-thiazol-2(3H)-ylidene]-2-{[(3S)-1-methylpyrrolidin-3-yl]oxy}-5-(trifluoromethyl)benzamide], the Ki on rat CB2 receptors was 81 nM; at human CB2 receptors, 111 nM.

As to `C=C=CCn1cc(C(C)(C)C)s/c1=N\C(=O)c1cc(C(F)(F)F)ccc1ONC(C)(C)C` [Example 31, N-[(2Z)-3-buta-2,3-dienyl-5-tert-butyl-1,3-thiazol-2(3H)-ylidene]-2-[(tert-butylamino)oxy]-5-(trifluoromethyl)benzamide], the values for the Ki on rat CB2 receptors and at human CB2 receptors were 1.7 nM and 17 nM, respectively.

As for `CC(C)Cn1cc(C(C)(C)C)s/c1=N\C(=O)c1cc(C#N)ccc1OC1CCC1` [Example 16, N-[(2Z)-5-tert-butyl-3-isobutyl-1,3-thiazol-2(3H)-ylidene]-5-cyano-2-(cyclobutyloxy)benzamide], the results for the Ki at rat CB2 receptors and at human CB2 receptors were 5.2 nM and 96 nM, respectively.

Consider `CC(C)Cn1cc(C(C)(C)C)s/c1=N\C(=O)c1cc(C(F)(F)F)ccc1OCCn1ccnc1` [Example 6, N-[(2Z)-5-tert-butyl-3-isobutyl-1,3-thiazol-2(3H)-ylidene]-2-[2-(1H-imidazol-1-yl)ethoxy]-5-(trifluoromethyl)benzamide], for which the Ki on rat CB2 receptors was 39 nM; on human CB2 receptors, 96 nM.

As for `CCCCn1cc(C(C)(C)C)s/c1=N\C(=O)c1cc(C(F)(F)F)ccc1OCC(C)(C)O` [Example 32, N-[(2Z)-3-butyl-5-tert-butyl-1,3-thiazol-2(3H)-ylidene]-2-(2-hydroxy-2-methylpropoxy)-5-(trifluoromethyl)benzamide], the Ki on rat CB2 receptors turned out to be 1.2 nM; at human CB2 receptors, 0.82 nM.

As for `CCCCn1/c(=N/C(=O)c2cc(C(F)(F)F)ccc2OC[C@@H](C)O)sc2ccncc21` [Example 28, N-[(2Z)-3-butyl[1,3]thiazolo[4,5-c]pyridin-2(3H)-ylidene]-2-{[(2R)-2-hydroxypropyl]oxy}-5-(trifluoromethyl)benzamide], the Ki on rat CB2 receptors is 63 nM; at human CB2 receptors, 75 nM.

Consider `CCCCn1/c(=N/C(=O)c2cc(C(F)(F)F)ccc2OC[C@@H]2CCCN2C)sc2ccncc21` [Example 33, N-[(2Z)-3-butyl[1,3]thiazolo[4,5-c]pyridin-2(3H)-ylidene]-2-{[(2S)-1-methylpyrrolidin-2-yl]methoxy}-5-(trifluoromethyl)benzamide], for which the Ki at rat CB2 receptors is 35 nM; on human CB2 receptors it was 34 nM.

Regarding `CCCCn1/c(=N/C(=O)c2cc(C(F)(F)F)ccc2OCCC(C)(C)O)sc2ccncc21` [Example 20, N-[(2Z)-3-butyl[1,3]thiazolo[4,5-c]pyridin-2(3H)-ylidene]-2-(3-hydroxy-3-methylbutoxy)-5-(trifluoromethyl)benzamide], the results for the Ki on rat CB2 receptors and at human CB2 receptors were 48 nM and 35 nM, respectively.

Regarding `Cc1s/c(=N\C(=O)c2cc(C(F)(F)F)ccc2OC[C@@H]2CCCN2C)n(CC2CC2)c1C` [Example 24, N-[(2Z)-3-(cyclopropylmethyl)-4,5-dimethyl-1,3-thiazol-2(3H)-ylidene]-2-{[(2S)-1-methylpyrrolidin-2-yl]methoxy}-5-(trifluoromethyl)benzamide], the Ki came to 35 nM at rat CB2 receptors and 30 nM at human CB2 receptors.

On to `C#CCCn1cc(C(C)(C)C)s/c1=N\C(=O)c1cc(C(F)(F)F)ccc1ONC(C)(C)C` [Example 30, 2-[(tert-butylamino)oxy]-N-[(2Z)-5-tert-butyl-3-but-3-ynyl-1,3-thiazol-2(3H)-ylidene]-5-(trifluoromethyl)benzamide], for which the Ki at rat CB2 receptors was found to be 0.75 nM; at human CB2 receptors, 15 nM.

For `CC(C)Cn1cc(C(C)(C)C)s/c1=N\C(=O)c1ccccc1OC[C@@H]1CCCN1C` [Example 10, N-[(2Z)-5-tert-butyl-3-isobutyl-1,3-thiazol-2(3H)-ylidene]-2-{[(2S)-1-methylpyrrolidin-2-yl]methoxy}benzamide], the Ki at rat CB2 receptors turned out to be 243 nM; at human CB2 receptors it was 296 nM.

Turning to `CCCCn1/c(=N/C(=O)c2cc(C(F)(F)F)ccc2ONC(C)(C)C)sc2ccncc21` [Example 22, 2-[(tert-butylamino)oxy]-N-[(2Z)-3-butyl[1,3]thiazolo[4,5-c]pyridin-2(3H)-ylidene]-5-(trifluoromethyl)benzamide], the Ki at rat CB2 receptors was determined as 73 nM; at human CB2 receptors, 62 nM.

For the compound `CCCCn1cc(C(C)(C)C)s/c1=N\C(=O)c1cc(C(F)(F)F)ccc1ONC(C)(C)C` [Example 23, 2-[(tert-butylamino)oxy]-N-[(2Z)-3-butyl-5-tert-butyl-1,3-thiazol-2(3H)-ylidene]-5-(trifluoromethyl)benzamide], the values for the Ki on rat CB2 receptors and at human CB2 receptors were 0.95 nM and 6.7 nM, respectively.

As for `CCCCn1c(C(=O)OC)c(C(C)C)s/c1=N\C(=O)c1cc(C(F)(F)F)ccc1ONC(C)(C)C` [Example 34], the inhibition constant (Ki) on rat CB2 receptors was 48 nM; at human CB2 receptors, 129 nM.

`CC(C)Cn1cc(C(C)(C)C)s/c1=N\C(=O)c1cc(Cl)ccc1OC1CC1` [Example 15, N-[(2Z)-5-tert-butyl-3-isobutyl-1,3-thiazol-2(3H)-ylidene]-5-chloro-2-(cyclopropyloxy)benzamide]: the Ki worked out at 1.1 nM on rat CB2 receptors and 9.9 nM on human CB2 receptors.

The values are drawn from patent publication US8895592B2, “Compounds as cannabinoid receptor ligands” (priority 2008, dated 2014).
